# “Also recorded” adds a separate entry of the source. Structures can show the parent of a compound that is named as a salt. Where two headings read alike, the source gives them in different places.
# Assays:
# [1] = tested on: native HEK293 cells; test: Whole-cell patch-clamp control in native HEK293 cells without transfection; format: cell-based, human; settings: prolintane 30 µM, 5-HT 10 µM (Fig. S3)
# Description: One day prior to recording, either native HEK293 cells or HEK293 cells stably expressing monoamine transporters were seeded at low density onto PDL-coated 35 mm dishes. Patch-clamp experiments were conducted at a holding potential of −60 mV, with substrate-induced currents recorded at room temperature (20–24 °C) using an […] amplifier and pClamp 11.2 software (MDS Analytical Technologies). During recordings, cells were continuously superfused via a DAD-12 perfusion system and an 8-tube manifold (ALA Scientific Instruments), delivering an external solution composed of 140 mM NaCl, 2.5 mM CaCl2, 3 mM KCl, 2 mM MgCl2, 20 mM glucose, and 10 mM HEPES, with pH adjusted to 7.3 using NaOH. The intracellular pipette solution, designed to mimic physiological ionic conditions, contained 133 mM potassium gluconate, 5.9 mM NaCl, 1 mM CaCl2, 0.7 mM MgCl2, 10 mM HEPES, and 10 mM EGTA, with pH set to 7.2 using KOH. Currents were filtered at 1 kHz and digitized at 10 kHz via a Digidata 1550 digitizer (MDS Analytical Technologies), followed by analysis in Clampfit 10.2 (Molecular Devices). Substance-induced currents were normalized to the current elicited by a saturating concentration of 5-HT (10 μM) of the same cell. Holding currents were subtracted, and a 50 Hz digital Gaussian low-pass filter was applied to the traces for further analysis.
# [2] = molecular target: T1, hNET (Homo sapiens, UniProt P23975); test: Batch release assay ([3H]MPP+) in transfected HEK293 cells; format: cell-based; settings: % efflux of total uptake, compounds approximately at IC50 concentration
# T1 construct: expressed in transfected cells
# Description: (§1) Batch release assays were performed as described previously ([44]). In brief, HEK293 cells stably expressing monoamine transporters were seeded similar to the procedure used for uptake inhibition assays. A day after seeding cells were pre-loaded with 50 μl/well 0.015 μM [^3H]MPP^+ (hDAT, hNET), or 0.08 μM [^3H]5-HT (hSERT) for 20 min at 37 °C. Then cells were washed four times for 3 to 4 min each and further incubated with KHB or KHB + monensin. After 10 min of incubation, two (screening) to four (full traces; hSERT) 2 min incubations were performed to establish a baseline release without substance. […] Each fraction was transferred to an empty well in the 96-well plate. For screening, a known inhibitor (hDAT, hNET: 50 μM GBR12909) and releaser (hDAT, hNET: 10 μM S-(+)-amphetamine) were used as controls. Ultima Gold XR scintillation cocktail was added to the remaining cells, and each well contained a release fraction. The counted radioactivity in the respective fraction was expressed as a percentage of total radioactivity at the start of the fraction.
# (§2) Half-maximal inhibitory concentrations (IC50) were obtained from fitting a sigmoidal dose–response ( Y=Bottom+Top−Bottom/1+10^((LogIC50−X)·HillSlope) ) in GraphPad Prism 10.3.1 (GraphPad Software Inc.). Uptake inhibition data were evaluated by one-way ANOVA followed by Tukey's multiple comparisons test. Release data were analyzed using a two-way ANOVA (batch release) or a mixed-effects model with Geisser-Greenhouse correction (time-dependent traces) employing Šidák correction for comparing differences between compounds with or without the addition of monensin.
# [3] = molecular target: T2, hDAT (Homo sapiens, UniProt Q01959); test: as above; format: cell-based; settings: % efflux of total uptake, compounds approximately at IC50 concentration
# T2 construct: expressed in transfected cells
# Description: as §1, §2
# [4] = molecular target: T3, hSERT (Homo sapiens, UniProt P31645); format: cell-based
# T3 construct: expressed in transfected cells
# Description: as §1, §2
# [5] = molecular target: rSERT (Rattus norvegicus, UniProt P31652); format: cell-based; design: expressed in transfected cells; settings: for Mean diff, rSERT efflux ± Mon (Šídák's multiple comparisons test): drug alone vs drug + monensin (Mon)
# Description: A day prior to the experiment, HEK293 cells stably expressing hSERT or rat SERT (rSERT) were seeded at a density of 100,000 cells per channel into 6 channel flow ibidi slides (Gräfelfing, Germany). On the day of the experiments, cells were preloaded with 0.1 μM [^3H]5-HT at 37 °C, 5% CO2 for 20 min. Subsequently, the slides were transferred to the superfusion apparatus ([59]). Cells were then washed with KHB for 15 min under a constant flow of 0.5 ml/min. Fractions were collected every 2 min in 8 ml vials containing 2 ml scintillation cocktail. Collection began with three baseline fractions using KHB, followed by four additional basal release fractions with KHB, either with or without 10 μM monensin. […] To assess residual radioactivity within the cells, they were lysed with 1% sodium dodecyl sulfate (SDS), and three final fractions were obtained. The measured tritiated substrate in each fraction was expressed as a percentage of the initial tritiated substrate present at the start of that fraction.
# Uptake inhibition data were evaluated by one-way ANOVA followed by Tukey's multiple comparisons test. Release data were analyzed using a two-way ANOVA (batch release) or a mixed-effects model with Geisser-Greenhouse correction (time-dependent traces) employing Šidák correction for comparing differences between compounds with or without the addition of monensin.
# Sequence of rSERT (P31652 whole entry, the tested form may be a part): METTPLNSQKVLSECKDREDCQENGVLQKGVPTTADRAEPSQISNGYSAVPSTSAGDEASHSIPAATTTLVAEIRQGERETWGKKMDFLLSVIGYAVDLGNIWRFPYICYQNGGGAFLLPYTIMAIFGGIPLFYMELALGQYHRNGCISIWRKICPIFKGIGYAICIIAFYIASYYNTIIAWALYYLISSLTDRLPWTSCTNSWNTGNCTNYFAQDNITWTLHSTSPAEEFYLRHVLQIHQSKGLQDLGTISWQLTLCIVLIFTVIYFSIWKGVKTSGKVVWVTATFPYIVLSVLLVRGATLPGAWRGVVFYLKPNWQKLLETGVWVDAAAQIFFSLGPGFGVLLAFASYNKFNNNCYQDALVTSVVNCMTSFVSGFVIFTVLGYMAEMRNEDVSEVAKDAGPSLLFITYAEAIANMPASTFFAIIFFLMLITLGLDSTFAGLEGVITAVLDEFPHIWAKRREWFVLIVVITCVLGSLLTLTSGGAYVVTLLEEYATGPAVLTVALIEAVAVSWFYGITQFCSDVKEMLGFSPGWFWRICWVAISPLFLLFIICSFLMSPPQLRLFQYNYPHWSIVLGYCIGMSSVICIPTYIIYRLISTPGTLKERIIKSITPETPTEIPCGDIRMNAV
# T1 sequence (P23975 whole entry): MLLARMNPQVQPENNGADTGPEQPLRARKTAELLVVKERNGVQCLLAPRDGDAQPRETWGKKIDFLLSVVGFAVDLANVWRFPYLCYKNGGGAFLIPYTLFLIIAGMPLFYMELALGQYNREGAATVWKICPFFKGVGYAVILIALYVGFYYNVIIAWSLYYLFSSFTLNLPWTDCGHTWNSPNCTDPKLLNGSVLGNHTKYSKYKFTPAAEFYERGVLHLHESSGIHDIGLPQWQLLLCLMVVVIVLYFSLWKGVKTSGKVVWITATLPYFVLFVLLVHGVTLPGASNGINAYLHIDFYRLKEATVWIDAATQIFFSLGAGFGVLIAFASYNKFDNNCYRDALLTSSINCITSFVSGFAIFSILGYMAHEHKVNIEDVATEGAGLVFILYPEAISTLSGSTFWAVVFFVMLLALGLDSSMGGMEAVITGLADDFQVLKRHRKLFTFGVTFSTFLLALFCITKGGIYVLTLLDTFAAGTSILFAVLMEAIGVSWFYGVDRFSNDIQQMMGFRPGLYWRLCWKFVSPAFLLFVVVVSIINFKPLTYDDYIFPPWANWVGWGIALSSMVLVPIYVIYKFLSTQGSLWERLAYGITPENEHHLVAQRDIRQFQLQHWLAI
# T2 sequence (Q01959 whole entry): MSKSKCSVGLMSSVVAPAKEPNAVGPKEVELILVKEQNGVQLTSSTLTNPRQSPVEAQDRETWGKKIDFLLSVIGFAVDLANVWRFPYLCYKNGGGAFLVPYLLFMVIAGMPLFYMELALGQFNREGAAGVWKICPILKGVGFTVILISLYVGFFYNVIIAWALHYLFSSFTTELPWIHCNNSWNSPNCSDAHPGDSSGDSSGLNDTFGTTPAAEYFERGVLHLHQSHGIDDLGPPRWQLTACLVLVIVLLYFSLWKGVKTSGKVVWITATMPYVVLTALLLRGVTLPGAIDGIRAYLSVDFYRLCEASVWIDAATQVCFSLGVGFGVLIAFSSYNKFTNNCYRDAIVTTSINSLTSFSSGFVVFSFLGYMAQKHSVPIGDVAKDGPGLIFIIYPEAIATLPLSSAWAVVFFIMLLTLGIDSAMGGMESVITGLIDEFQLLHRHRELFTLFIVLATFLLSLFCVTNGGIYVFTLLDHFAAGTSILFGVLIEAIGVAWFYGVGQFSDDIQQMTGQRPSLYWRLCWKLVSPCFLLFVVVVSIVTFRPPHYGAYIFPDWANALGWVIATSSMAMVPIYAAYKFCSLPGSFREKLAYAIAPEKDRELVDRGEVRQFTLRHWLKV
# T3 sequence (P31645 whole entry): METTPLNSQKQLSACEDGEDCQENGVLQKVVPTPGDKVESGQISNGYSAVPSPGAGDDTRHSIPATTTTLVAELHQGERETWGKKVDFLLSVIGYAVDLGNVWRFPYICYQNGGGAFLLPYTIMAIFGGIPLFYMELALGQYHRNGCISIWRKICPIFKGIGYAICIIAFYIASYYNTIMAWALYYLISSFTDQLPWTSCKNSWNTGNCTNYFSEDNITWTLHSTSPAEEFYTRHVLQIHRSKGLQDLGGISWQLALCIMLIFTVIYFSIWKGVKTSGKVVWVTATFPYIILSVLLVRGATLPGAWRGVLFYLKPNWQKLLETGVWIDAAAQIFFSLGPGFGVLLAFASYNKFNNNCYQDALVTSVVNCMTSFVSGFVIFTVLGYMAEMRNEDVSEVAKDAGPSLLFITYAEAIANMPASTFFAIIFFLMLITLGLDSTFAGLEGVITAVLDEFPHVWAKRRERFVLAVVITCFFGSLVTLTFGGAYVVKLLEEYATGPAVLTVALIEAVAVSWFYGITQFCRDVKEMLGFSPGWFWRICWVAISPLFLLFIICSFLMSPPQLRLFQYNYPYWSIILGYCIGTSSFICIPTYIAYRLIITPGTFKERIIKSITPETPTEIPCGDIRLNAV
compound,measurement,setting,value
"NCCc1c[nH]c2ccc(O)cc12 [5-HT, serotonin]",current in native HEK293 cells without transfection,[1],no current could be recorded; also recorded: do not induce currents
"Fc1ccc(C(OCCN2CCN(CCCc3ccccc3)CC2)c2ccc(F)cc2)cc1 [GBR12909, vanoxerine, reference compound]","hNET-mediated efflux, predicted (LS) mean diff, No mon - Mon",[2],-0.7072
same,"hDAT-mediated efflux, predicted (LS) mean diff, No mon - Mon",[3],-0.7725
"C[C@H](N)Cc1ccccc1 [S-(+)-amphetamine, dextroamphetamine hemi sulfate salt, reference compound]","hNET-mediated efflux, predicted (LS) mean diff, No mon - Mon",[2],-5.397
same,"hDAT-mediated efflux, predicted (LS) mean diff, No mon - Mon",[3],-1.735
"CC(N)Cc1ccc(Cl)cc1 (stereo not shown) [pCA, para-chloroamphetamine]","hSERT-mediated efflux, predicted (LS) mean diff, No mon - Mon",[4],-18.87
same,"Mean diff, rSERT efflux ± Mon (Šídák's multiple comparisons test)",[5]; Row 1 (time fraction),0.1306
same,"Mean diff, rSERT efflux ± Mon (Šídák's multiple comparisons test)",[5]; Row 2 (time fraction),0.1761
same,"Mean diff, rSERT efflux ± Mon (Šídák's multiple comparisons test)",[5]; Row 3 (time fraction),0.2854
same,"Mean diff, rSERT efflux ± Mon (Šídák's multiple comparisons test)",[5]; Row 4 (time fraction),0.1377
same,"Mean diff, rSERT efflux ± Mon (Šídák's multiple comparisons test)",[5]; Row 5 (time fraction),-0.4218
same,"Mean diff, rSERT efflux ± Mon (Šídák's multiple comparisons test)",[5]; Row 6 (time fraction),-0.8916
same,"Mean diff, rSERT efflux ± Mon (Šídák's multiple comparisons test)",[5]; Row 7 (time fraction),-1.153
same,"Mean diff, rSERT efflux ± Mon (Šídák's multiple comparisons test)",[5]; Row 8 (time fraction),-7.649
same,"Mean diff, rSERT efflux ± Mon (Šídák's multiple comparisons test)",[5]; Row 9 (time fraction),-4.816
same,"Mean diff, rSERT efflux ± Mon (Šídák's multiple comparisons test)",[5]; Row 10 (time fraction),-3.007
same,"Mean diff, rSERT efflux ± Mon (Šídák's multiple comparisons test)",[5]; Row 11 (time fraction),-2.599
same,"Mean diff, rSERT efflux ± Mon (Šídák's multiple comparisons test)",[5]; Row 12 (time fraction),-2.043
same,magnitude of [3H]5-HT release in cells expressing rSERT compared to hSERT,"[5]; superfusion, HEK293 cells",significantly lower magnitude

# From article PMC12720098, “Prolintane analogs as hybrid monoamine transporter ligands: Structural determinants and species differences” (The Journal of Biological Chemistry, 2025)
